From patent US4714764A, “2-(4-pyridylaminomethyl)-benzimidazole derivatives having antiviral activity” (Maruishi Seiyaku Kabushiki Kaisha, priority 1985, dated 1987)
Where a name gives a salt, the structure may show the parent alone.

Assays:
enterovirus type 70 = test: Inhibition of virus cytopathogenic effect (CPE) in LLC-MK2 cells; assay type: cell-based; settings: for CI (chemotherapeutic index): CI=CD50 /ID50; for IC50: Enterovirus D, enterovirus type 70, 100-300 TCID50, LLC-MK2 cells, 33° C., examined at 48, 72, 96 and 120 h, read-out: IC50 (lowest concentration that reduced virus CPE by 50% or more)
[1] = Morphological cytotoxicity in LLC-MK2 cells; assay type: cell-based; settings: monkey, 33° C., examined at 48, 72, 96 and 120 h, read-out: CD50 (lowest concentration that caused morphological cytotoxicity by 50% or more)

Row | SMILES | CI (chemotherapeutic index) (enterovirus type 70) | IC50 (enterovirus type 70) [µg/mL] | CC50 [1] [µg/mL]
1 | Cl.Cl.c1ccc2[nH]c(CNc3ccncc3)nc2c1 [Compound I, 2-(4-pyridylaminomethyl) benzimidazole dihydrochloride] | 152 | 3.7 | 562
2 | Clc1ccc2[nH]c(CNc3ccncc3)nc2c1 [Compound II, 2-(4-pyridylaminomethyl)-5(6)-chlorobenzimidazole dihydrochloride] | 99 | 1.8 | 178
3 | O=C(c1ccccc1)c1ccc2[nH]c(CNc3ccncc3)nc2c1 [Compound III, 2-(4-pyridylaminomethyl)-5(6)-benzoylbenzimidazole dihydrochloride] | – | > 100 | > 100
4 | COc1ccc2[nH]c(CNc3ccncc3)nc2c1 [Compound IV, 2-(4-pyridylaminomethyl)-5(6)-methoxybenzimidazole dihydrochloride] | 64 | 27.6 | 1770
5 | FC(F)(F)c1ccc2[nH]c(CNc3ccncc3)nc2c1 [Compound IX, 2-(4-pyridylaminomethyl)-5(6)-trifluoromethylbenzimidazole dihydrochloride] | 64 | 5.5 | 354
6 | Cc1ccc2[nH]c(CNc3ccncc3)nc2c1 [Compound V, 2-(4-pyridylaminomethyl)-5(6)-methylbenzimidazole dihydrochloride] | 311 | 1.8 | 562
7 | O=[N+]([O-])c1ccc2[nH]c(CNc3ccncc3)nc2c1 [Compound VI, 2-(4-pyridylaminomethyl)-5(6)-nitrobenzimidazole dihydrochloride] | – | > 100 | > 100
8 | Cl.Cl.Clc1cc2nc(CNc3ccncc3)[nH]c2cc1Cl [Compound VII, 2-(4-pyridylaminomethyl)-5,6-dichlorobenzimidazole dihydrochloride] | 126 | 1.4 | 177
9 | Nc1ccc2[nH]c(CNc3ccncc3)nc2c1 [Compound VIII, 2-(4-pyridylaminomethyl)-5(6)-aminobenzimidazole trihydrochloride] | – | > 100 | > 100
10 | CCc1ccc2[nH]c(CNc3ccncc3)nc2c1 [Compound X, 2-(4-pyridylaminomethyl)-5(6)-ethylbenzimidazole dihydrochloride] | 362 | 0.98 | 354
11 | Cc1cccc2[nH]c(CNc3ccncc3)nc12 [Compound XI, 2-(4-pyridylaminomethyl)-4(7)-methylbenzimidazole dihydrochloride] | – | > 100 | > 100
12 | Cc1cc2nc(CNc3ccncc3)[nH]c2cc1C.Cl.Cl [Compound XII, 2-(4-pyridylaminomethyl)-5,6-dimethylbenzimidazole dihydrochloride] | 239 | 3 | 707
